According to patent publication US6737383B1, “Herbicidal oxadiazolidines” (priority 1999, dated 2004):

What was measured:
[1] = test system: bedstraw; test: Test B pre/postemergence bedstraw; format: in vivo, Galium aparine
In short: (§1)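 Test chemicals in a non-phytotoxic solvent mixture with surfactant were sprayed preemergence onto planted seeds and postemergence onto plants 2 to 18 cm tall (1- to 4-leaf stage). After twelve to sixteen days in a greenhouse, injury was visually rated against untreated controls from 0 (no effect) to 10 (complete control).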

[2] = test system: blackgrass; test: Test B pre/postemergence blackgrass; format: in vivo, Alopecurus myosuroides
In short: as §1

[3] = test system: surinam grass; test: Test B pre/postemergence surinam grass; format: in vivo, Brachiaria decumbens
In short: as §1

[4] = test system: cocklebur; test: Test B pre/postemergence cocklebur; format: in vivo, Xanthium strumarium
In short: as §1

[5] = test system: corn; test: Test B pre/postemergence corn; format: in vivo, Zea mays
In short: as §1

[6] = test system: crabgrass; test: Test B pre/postemergence crabgrass; format: in vivo, Digitaria sanguinalis
In short: as §1

[7] = test system: giant foxtail; test: Test B pre/postemergence giant foxtail; format: in vivo, Setaria faberii
In short: as §1

[8] = test system: morningglory; test: Test B pre/postemergence morningglory; format: in vivo, Ipomoea hederacea
In short: as §1

[9] = test system: pigweed; test: Test B pre/postemergence pigweed; format: in vivo, Amaranthus retroflexus
In short: as §1

[10] = test system: rape; test: Test B pre/postemergence rape; format: in vivo, Brassica napus
In short: as §1

[11] = test system: soybean; test: Test B pre/postemergence soybean; format: in vivo, Glycine max
In short: as §1

[12] = test system: sugar beet; test: Test B pre/postemergence sugar beet; format: in vivo, Beta vulgaris
In short: as §1

[13] = test system: velvetleaf; test: Test B pre/postemergence velvetleaf; format: in vivo, Abutilon theophrasti
In short: as §1

[14] = test system: wheat; test: Test B pre/postemergence wheat; format: in vivo, Triticum aestivum
In short: as §1

[15] = test system: wild oat; test: Test B pre/postemergence wild oat; format: in vivo, Avena fatua
In short: as §1

[16] = test system: purple nutsedge; test: Test B pre/postemergence purple nutsedge; format: in vivo, Cyperus rotundus; conditions: Rate 62 g/ha
In short: as §1

[17] = Postemergence, Rate 250 g/ha, scale 0 to 10
[18] = Preemergence, Rate 62 g/ha, scale of 0 to 10 where 0 is no effect and 10 is complete control
[19] = Preemergence, Rate 125 g/ha, scale 0 to 10, 0 is no effect, 10 is complete control
[20] = Preemergence, Rate 250 g/ha, scale 0 to 10, 0 is no effect, 10 is complete control
[21] = Preemergence, Rate 500 g/ha, scale 0 to 10, 0 is no effect, 10 is complete control
[22] = Postemergence, Rate 62 g/ha, scale of 0 to 10, 0 is no effect, 10 is complete control
[23] = Postemergence, Rate 125 g/ha, scale 0 to 10, 0 is no effect, 10 is complete control
[24] = Postemergence, Rate 500 g/ha, scale 0 to 10, 0 is no effect, 10 is complete control
[25] = Preemergence, Rate 500 g/ha, scale of 0 to 10 where 0 is no effect and 10 is complete control

## CCN(CC)C(=O)Cn1c(=O)on(C(=O)N(c2ccc(F)cc2F)C(C)C)c1=O [Compound 512]
[1]; [17]
  Bedstraw plant response rating: 7
[1]; [18]
  Plant response rating, Bedstraw: 0
[1]; [19]
  Bedstraw plant response rating: 0
[1]; [20]
  Bedstraw plant response rating: 0
[1]; [21]
  Bedstraw plant response rating: 3
[2]; [22]
  Blackgrass plant response rating: 2
[2]; [23]
  Blackgrass plant response rating: 3
[2]; [17]
  Blackgrass plant response rating: 6
[2]; [24]
  Plant response rating, Blackgrass: 6
[2]; [18]
  Plant response rating, Blackgrass: 0
[2]; [19]
  Blackgrass plant response rating: 2
[2]; [20]
  Blackgrass plant response rating: 9
[2]; [25]
  Blackgrass plant response rating: 10
[3]; [22]
  B. signalgrass plant response rating: 0
[3]; [23]
  B. signalgrass plant response rating: 1
[3]; Postemergence, Rate 250 g/ha, scale 0 to 10, 0 no effect, 10 complete control
  B. signalgrass plant response rating: 4
[3]; [24]
  Plant response rating, B. signalgrass: 5
[3]; [18]
  Plant response rating, B. signalgrass: 3
[3]; [19]
  B. signalgrass plant response rating: 8
[3]; [20]
  B. signalgrass plant response rating: 10
[3]; [21]
  B. signalgrass plant response rating: 10
[4]; [22]
  Cocklebur plant response rating: 0
[4]; [23]
  Cocklebur plant response rating: 2
[4]; [17]
  Cocklebur plant response rating: 3
[4]; [24]
  Plant response rating, Cocklebur: 7
[4]; [18]
  Plant response rating, Cocklebur: 0
[4]; [19]
  Cocklebur plant response rating: 0
[4]; [20]
  Cocklebur plant response rating: 0
[4]; [25]
  Cocklebur plant response rating: 0
[5]; [22]
  Corn plant response rating: 0
[5]; [23]
  Corn plant response rating: 0
[5]; [17]
  Corn plant response rating: 0
[5]; [24]
  Plant response rating, Corn: 0
[5]; [18]
  Plant response rating, Corn: 0
[5]; [19]
  Corn plant response rating: 0
[5]; [25]
  Corn plant response rating: 3
[6]; [22]
  Crabgrass plant response rating: 2
[6]; [23]
  Crabgrass plant response rating: 2
[6]; [17]
  Crabgrass plant response rating: 5
[6]; [24]
  Plant response rating, Crabgrass: 9
[6]; [18]
  Plant response rating, Crabgrass: 3
[6]; [19]
  Crabgrass plant response rating: 7
[6]; [25]
  Crabgrass plant response rating: 9
[7]; [22]
  Giant foxtail plant response rating: 2
[7]; [23]
  Giant foxtail plant response rating: 3
[7]; [24]
  Plant response rating, Giant foxtail: 8
[7]; [18]
  Plant response rating, Giant foxtail: 5
[7]; [19]
  Giant foxtail plant response rating: 9
[7]; [25]
  Giant foxtail plant response rating: 10
[8]; [22]
  Morningglory plant response rating: 5
[8]; [23]
  Morningglory plant response rating: 5
[8]; [24]
  Plant response rating, Morningglory: 7
[8]; [18]
  Plant response rating, Morningglory: 0
[8]; [19]
  Morningglory plant response rating: 0
[8]; [25]
  Morningglory plant response rating: 0
[9]; [22]
  Redroot pigweed plant response rating: 1
[9]; [23]
  Redroot pigweed plant response rating: 7
[9]; [24]
  Plant response rating, Redroot pigweed: 9
[9]; [18]
  Plant response rating, Redroot pigweed: 3
[9]; [19]
  Redroot pigweed plant response rating: 9
[9]; [25]
  Redroot pigweed plant response rating: 10
[10]; [22]
  Rape plant response rating: 0
[10]; [23]
  Rape plant response rating: 0
[10]; [24]
  Plant response rating, Rape: 0
[10]; [18]
  Plant response rating, Rape: 0
[10]; [19]
  Rape plant response rating: 0
[10]; [25]
  Rape plant response rating: 5
[11]; [22]
  Soybean plant response rating: 4
[11]; [23]
  Soybean plant response rating: 4
[11]; [24]
  Plant response rating, Soybean: 7
[11]; [18]
  Plant response rating, Soybean: 0
[11]; [19]
  Soybean plant response rating: 0
[11]; [25]
  Soybean plant response rating: 0
[12]; [22]
  Sugarbeets plant response rating: 0
[12]; [23]
  Sugarbeets plant response rating: 0
[12]; [24]
  Plant response rating, Sugarbeets: 7
[12]; [18]
  Plant response rating, Sugarbeets: 0
[12]; [19]
  Sugarbeets plant response rating: 0
[12]; [25]
  Sugarbeets plant response rating: 5
[13]; [22]
  Velvetleaf plant response rating: 0
[13]; [23]
  Velvetleaf plant response rating: 0
[13]; [24]
  Plant response rating, Velvetleaf: 1
[13]; [18]
  Plant response rating, Velvetleaf: 0
[13]; [19]
  Velvetleaf plant response rating: 0
[13]; [25]
  Velvetleaf plant response rating: 0
[14]; [22]
  Wheat plant response rating: 0
[14]; [23]
  Wheat plant response rating: 0
[14]; [24]
  Plant response rating, Wheat: 2
[14]; [18]
  Plant response rating, Wheat: 0
[14]; [19]
  Wheat plant response rating: 2
[14]; [25]
  Wheat plant response rating: 6
[15]; [22]
  Wild oats plant response rating: 0
[15]; [23]
  Wild oats plant response rating: 0
[15]; [24]
  Plant response rating, Wild oats: 1
[15]; [18]
  Plant response rating, Wild oats: 2
[15]; [19]
  Wild oats plant response rating: 2
[15]; [25]
  Wild oats plant response rating: 10
[16]; Postemergence, scale of 0 to 10, 0 is no effect, 10 is complete control
  Nutsedge plant response rating: 0
[16]; Preemergence, scale of 0 to 10 where 0 is no effect and 10 is complete control
  Plant response rating, Nutsedge: 0
